Source: patent US10947575B2, “Rapid antimicrobial susceptibility test, based on an analysis of changes in morphology and growth pattern of a microbial cell under different concentrations of various antimicrobial agents, and automated cell image analysis system therefor” (priority 2014, dated 2021)
Where two headings read alike, the source gives them in different places.

Legend:
E. coli ATCC 25922 [1] = experiment: AST by analysis of changes in morphology and growth pattern of a microbial cell (MAC 2.0 chip imaging); format: cell-based; conditions: Normal / Filament / Swelling
Source text: (§1) Four reference strains (E. coli ATCC 25922, S. aureus ATCC 29213, P. aeruginosa ATCC 27853, and E. faecalis ATCC 29212) were used as objective strains, in accordance with Clinical and Laboratory Standards Institute (CLSI) guidelines. […] The bacterial cell in MAC 2.0TM (QuantaMatrix) was monitored through a S Plan Fluor ELWD 60X (NA 1.49) lens of an inverted optical microscope (Eclipse Ti-Nikon, IX71-Olympus) provided in a heating system, and then, an electron multiplying CCD camera (QuantEM:512SC Photometrics for Eclipse Ti) was used to obtain images of a region where is adjacent to an interface between the agarose well of MAC 2.0TM and the antimicrobial agents well, over time.

P. aeruginosa ATCC 27853 [2] = experiment: as above; format: cell-based; conditions: Normal / Filament / Swelling
Source text: as §1

E. coli ATCC 25922 [3] = experiment: MIC by the proposed method (SCMA), from morphology and growth pattern changes; format: cell-based; conditions: time to result 3 hr
Source text: (§2) The bacterial cell in MAC 2.0™ (QuantaMatrix) was monitored through a S Plan Fluor ELWD 60X (NA 1.49) lens of an inverted optical microscope (Eclipse Ti—Nikon, IX71—Olympus) provided in a heating system, and then, an electron multiplying CCD camera (QuantEM:512SC Photometrics for Eclipse Ti) was used to obtain images of a region where is adjacent to an interface between the agarose well of MAC 2.0™ and the antimicrobial agents well, over time. […] In the AST method according to the inventive concept, minimal inhibitory concentration (MIC) was measured using the changes in morphology and growth pattern of the four reference strains (i.e., E. coli ATCC 25922, S. aureus ATCC 29213, P. aeruginosa ATCC 27853, and E. faecalis ATCC 29212) and was compared with MIC quality control (QC) per CLSI guidelines.

P. aeruginosa ATCC 27853 [4] = experiment: as above; format: cell-based; conditions: time to result 3 hr
Source text: as §2

E. coli ATCC 25922 [5] = conditions: time to result 16~20 hr; cited from earlier work
P. aeruginosa ATCC 27853 [6] = conditions: time to result 16~20 hr; cited from earlier work
E. faecalis ATCC 29212 [7] = experiment: MIC by the proposed method (SCMA), from morphology and growth pattern changes; format: cell-based; conditions: time to result 4 hr
Source text: as §2

S. aureus ATCC 29213 [8] = experiment: as above; format: cell-based
Source text: as §2

E. faecalis ATCC 29212 [9] = experiment: AST by analysis of changes in morphology and growth pattern of a microbial cell (MAC 2.0 chip imaging); format: cell-based; conditions: RRG = relatively rapid growth, RSG = relatively slow growth
Source text: as §1

S. aureus ATCC 29213 [10] = experiment: as above; format: cell-based; conditions: RRG = relatively rapid growth, RSG = relatively slow growth
Source text: as §1

S. aureus ATCC 29213 [11] = conditions: time to result 16~20 hr; cited from earlier work
E. faecalis ATCC 29212 [12] = conditions: time to result 16~20 hr, cited from earlier work
[13] = time to result 4 hr, unit assumed

Row | Compound | Criteria (change in morphology and growth pattern) (E. coli ATCC 25922 [1]) | Criteria (change in morphology and growth pattern) (P. aeruginosa ATCC 27853 [2]) | SCMA Results (MIC) (E. coli ATCC 25922 [3]; unit assumed) | CLSI QC range (MIC) (E. coli ATCC 25922 [5]) | CLSI QC range (MIC) (P. aeruginosa ATCC 27853 [6]) | SCMA Results (MIC) (E. faecalis ATCC 29212 [7]) | Criteria (change in morphology and growth pattern) (E. faecalis ATCC 29212 [9]) | further results
1 | C[C@H]1[C@H](NC(=O)/C(=N\OC(C)(C)C(=O)O)c2csc(N)n2)C(=O)N1S(=O)(=O)O [Aztreonam] | Filament | Filament | 0.12 mg/L | 0.06~0.25 | 2~8 | – | – | SCMA Results (MIC) (P. aeruginosa ATCC 27853 [4]): 2~4
2 | C[C@H]1COc2c(N3CCN(C)CC3)c(F)cc3c(=O)c(C(=O)O)cn1c23 [Levofloxacin] | – | – | – | – | – | 1 mg/L | – | SCMA Results (MIC) (S. aureus ATCC 29213 [8]; time to result 4 hr): 0.12~0.25
3 | C[C@@H](O)[C@H]1C(=O)N2C(C(=O)O)=C(SCCN=CN)C[C@H]12 [Imipenem] | – | – | 0.12 mg/L | – | – | – | – | SCMA Results (MIC) (P. aeruginosa ATCC 27853 [4]; unit assumed): 1 mg/L; SCMA Results (MIC) (S. aureus ATCC 29213 [8]; [13]): 0.03 mg/L
4 | CO[C@H]1/C=C/O[C@@]2(C)Oc3c(C)c(O)c4c(O)c(c(/C=N/N5CCN(C)CC5)c(O)c4c3C2=O)NC(=O)/C(C)=C\C=C\[C@H](C)[C@H](O)[C@@H](C)[C@@H](O)[C@@H](C)[C@H](OC(C)=O)[C@@H]1C [Rifampin] | – | – | – | – | – | 0.5 mg/L | RSG | Criteria (change in morphology and growth pattern) (S. aureus ATCC 29213 [10]): RSG; SCMA Results (MIC) (S. aureus ATCC 29213 [8]; 6 hr): 0.004~0.08 (6 hr); CLSI QC range (MIC) (S. aureus ATCC 29213 [11]): 0.004~0.015; CLSI QC range (MIC) (E. faecalis ATCC 29212 [12]): 0.5~4
5 | Teicoplanin | – | – | – | – | – | 0.5 mg/L | Normal | CLSI QC range (MIC) (E. faecalis ATCC 29212 [12]): 0.25~1
6 | CO/N=C(\C(=O)N[C@@H]1C(=O)N2C(C(=O)O)=C(COC(C)=O)CS[C@H]12)c1csc(N)n1 [Cefotaxime] | Filament | Filament | 0.06 mg/L | – | 8~32 | – | – | SCMA Results (MIC) (P. aeruginosa ATCC 27853 [4]; unit assumed): 16 mg/L
7 | Cc1nnc(SCC2=C(C(=O)O)N3C(=O)[C@@H](NC(=O)Cn4cnnn4)[C@H]3SC2)s1 [Cefazolin] | Filament | – | 2 mg/L | 1~4 | – | – | – | –
8 | CN[C@H](CC(C)C)C(=O)N[C@H]1C(=O)N[C@@H](CC(N)=O)C(=O)N[C@H]2C(=O)N[C@H]3C(=O)N[C@H](C(=O)N[C@H](C(=O)O)c4cc(O)cc(O)c4-c4cc3ccc4O)[C@H](O)c3ccc(c(Cl)c3)Oc3cc2cc(c3O[C@@H]2O[C@H](CO)[C@@H](O)[C@H](O)[C@H]2O[C@H]2C[C@](C)(N)[C@H](O)[C@H](C)O2)Oc2ccc(cc2Cl)[C@H]1O [Vancomycin] | – | – | – | – | – | 2~4 | Normal growth | Criteria (change in morphology and growth pattern) (S. aureus ATCC 29213 [10]): normal; SCMA Results (MIC) (S. aureus ATCC 29213 [8]; [13]): 1 mg/L; CLSI QC range (MIC) (S. aureus ATCC 29213 [11]): 0.5~2; CLSI QC range (MIC) (E. faecalis ATCC 29212 [12]): 1~4
9 | C[C@@H](O)[C@H]1C(=O)N2C(C(=O)O)=C(S[C@@H]3CN[C@H](C(=O)N(C)C)C3)[C@H](C)[C@H]12 [Meropenem] | – | Swelling | – | – | 0.25~1 | – | – | SCMA Results (MIC) (P. aeruginosa ATCC 27853 [4]; unit assumed): 1 mg/L
10 | CO/N=C(\C(=O)N[C@@H]1C(=O)N2C(C(=O)[O-])=C(C[N+]3(C)CCCC3)CS[C@H]12)c1csc(N)n1 [Cefepime] | Filament | Filament | – | 0.015~0.12 | 0.5~4 | – | – | SCMA Results (MIC) (E. coli ATCC 25922 [3]): 0.03~0.06; SCMA Results (MIC) (P. aeruginosa ATCC 27853 [4]): 0.5~2
11 | CC(=O)NC[C@H]1CN(c2ccc(N3CCOCC3)c(F)c2)C(=O)O1 [Linezolid] | – | – | – | – | – | 1~2 | RSG | Criteria (change in morphology and growth pattern) (E. faecalis ATCC 29212 [9]; listed as linezolid): Relatively slow growth (RSG); Criteria (change in morphology and growth pattern) (S. aureus ATCC 29213 [10]): RSG; SCMA Results (MIC) (S. aureus ATCC 29213 [8]; time to result 4 hr): 1~4; CLSI QC range (MIC) (S. aureus ATCC 29213 [11]): 1~4; CLSI QC range (MIC) (E. faecalis ATCC 29212 [12]): 1~4
12 | CCN1CCN(C(=O)N[C@@H](C(=O)N[C@@H]2C(=O)N3[C@@H]2SC(C)(C)[C@@H]3C(=O)O)c2ccccc2)C(=O)C1=O [Piperacillin] | Filament formation | Filament | 2 mg/L | 1~4 | 1~8 | – | – | SCMA Results (MIC) (P. aeruginosa ATCC 27853 [4]): 4~8
13 | Cc1onc(-c2ccccc2)c1C(=O)N[C@@H]1C(=O)N2[C@@H]1SC(C)(C)[C@@H]2C(=O)O [Oxacillin] | – | – | – | – | – | – | – | Criteria (change in morphology and growth pattern) (S. aureus ATCC 29213 [10]): RRG; SCMA Results (MIC) (S. aureus ATCC 29213 [8]; [13]): 0.5 mg/L; CLSI QC range (MIC) (S. aureus ATCC 29213 [11]): 0.12~0.5
14 | CC(C)(O/N=C(\C(=O)N[C@@H]1C(=O)N2C(C(=O)[O-])=C(C[n+]3ccccc3)CS[C@H]12)c1csc(N)n1)C(=O)O [Ceftazidime] | Filament | Filament formation | 0.5 mg/L | 0.06~0.5 | 1~4 | – | – | SCMA Results (MIC) (P. aeruginosa ATCC 27853 [4]): 2~4
15 | NC[C@H]1O[C@H](O[C@H]2[C@H](O)[C@@H](O[C@H]3O[C@H](CO)[C@@H](O)[C@H](N)[C@H]3O)[C@H](N)C[C@@H]2N)[C@H](N)C[C@@H]1O [Tobramycin] | – | Normal | – | – | 0.25~1 | – | – | –
16 | NCC[C@H](O)C(=O)N[C@@H]1C[C@H](N)[C@@H](O[C@H]2O[C@H](CN)[C@@H](O)[C@H](O)[C@H]2O)[C@H](O)[C@H]1O[C@H]1O[C@H](CO)[C@@H](O)[C@H](N)[C@H]1O [Amikacin] | Normal growth | Normal | – | 0.5~4 | 1~4 | – | – | SCMA Results (MIC) (E. coli ATCC 25922 [3]): 0.5~1; SCMA Results (MIC) (P. aeruginosa ATCC 27853 [4]): 1~2
17 | CC1(C)S[C@@H]2[C@H](NC(=O)[C@H](C(=O)O)c3ccsc3)C(=O)N2[C@H]1C(=O)O [Ticarcilin] | – | Filament | – | – | 8~32 | – | – | SCMA Results (MIC) (P. aeruginosa ATCC 27853 [4]; unit assumed): 16 mg/L
18 | CO[C@@]1(NC(=O)Cc2cccs2)C(=O)N2C(C(=O)O)=C(COC(N)=O)CS[C@@H]21 [Cefoxitin] | Filament | – | 2 mg/L | 2~8 | – | – | – | –
19 | CCn1cc(C(=O)O)c(=O)c2cc(F)c(N3CCNCC3)cc21 [Norfloxacin] | Normal | – | – | 0.03~0.12 | – | 2~4 | RRG | SCMA Results (MIC) (E. coli ATCC 25922 [3]): 0.03~0.06; CLSI QC range (MIC) (E. faecalis ATCC 29212 [12]): 2~8
20 | [H]/N=C(/N)N[C@H]1[C@H](O)[C@@H](O)[C@H](O[C@@H]2O[C@@H](C)[C@](O)(C=O)[C@H]2O[C@@H]2O[C@@H](CO)[C@H](O)[C@@H](O)[C@@H]2NC)[C@@H](N/C(N)=N\[H])[C@@H]1O [Streptomycin High Level, Streptomycin] | – | – | – | – | – | ≤ 500 mg/L | Normal | CLSI QC range (MIC) (E. faecalis ATCC 29212 [12]; unit assumed): ≤ 500 mg/L
